Test results: patent US20250304623A1, “PEPTIDES FOR INTRACELLULAR DELIVERY” (UNIVERSIDADE DE SANTIAGO DE COMPOSTELA, priority 2022, published 2025)
*: point of attachment. NHNH2 = NN*

Columns and labels:
Assay type in all cases: cell-based
A549 cells = test: EGFP mRNA delivery, robotic library screening, A549
Experimental: (§1) Cells were seeded in a 96 well plate the day before the experiment at a concentration of 50,000 cell/mL (100 μL/w) in DMEM+10% FBS+1% Gln-Abt. For robotic library screening, the delivery of EGFP-mRNA (from TriLink, fully substituted with 5-methoxyuridine, capped and polyadenylated; TriLink, CleanCap® EGFP mRNA (5moU), ref. L-7201) in six different cell lines was performed. Amphiphilic molecule stock solutions were prepared in DMSO as described above and diluted in DMEM to afford a range of concentrations. The solutions of EGFP-mRNA/amphiphilic molecule complexes were freshly prepared prior to the transfection experiments. 35 μL of the corresponding amphiphile were added to 10 μL of a solution of EGFP-mRNA at 10 ng/μL in DMEM. The mixture was shaken for 30 min at room temperature before the addition to the cells. The cell medium was aspirated, and cells were washed with PBS twice. Cells were covered with 39 μL of DMEM and 11 μL of the complex's solution were added to the cells and incubated for 4 h (final concentration of peptide=2.5, 5 and 10 μM; final concentration of EGFP-mRNA=25 ng/well). After the incubation, the medium was replaced by 100 μL of fresh DMEM supplemented with 10% FBS. The total EGFP fluorescence was quantified after 72 h in a well plate reader. Amphiphile transfection efficiency was compared and normalized to Lipofectamine® MessengerMax efficiency (value of 1 in Tables 1-5 and 7; double underlined numbers). All experiments were done in triplicate.
(§2) Tables 1-7: RLuc (pDNA) or EGFP (mRNA) expression levels were normalized to Lipofectamine reagents (value=1) and expressed as fold-times signal increase. In the case of siRNA, the siRNA treated cells fluorescence was compared with siMOCK control fluorescence, while Cas9-RNP mediated knockout was measured against the fluorescence of untreated cells. In both siRNA and Cas9-RNP, values are expressed as % fluorescence reduction. Amphiphile concentration was 5 μM in all cases. All experiments were performed in triplicate.
(§3) Tables 14-19 show the mean (triplicates) fluorescence intensity measured after the transfection of EGFP mRNA by different amphiphiles at different concentrations in a variety of cell lines. Background fluorescence values, accounted by untreated control cells, were subtracted for processing.

[1] = system: A549 cells expressing EGFP; test: Cas9-RNP delivery against EGFP (gene editing, plate reader), A549; conditions: A549 cells
Experimental: To generate an EGFP expressing HeLa cell line, HeLa cells were transfected with EGFP pDNA (pEGFP-C1, Clontech) and stable transfectants were selected with 400 μg/mL of G-418 (Millipore). Green clones were selected by epifluorescence microscopy and tested for EGFP expression stability through several passages. […] All other EGFP-expressing cell lines were obtained in a similar way from parent non-EGFP-expressing cell lines.
Cells expressing EGFP were seeded in a 96 well plate the day before the experiment at a concentration of 50,000 cell/mL (100 μL/w) in DMEM+10% FBS+1% Gln-Abt. For robotic library screening, the delivery of Cas9-RNP against EGFP (RNP designed to knock-out the gene encoding for the enhanced green fluorescent protein (EGFP)) was performed. For RNP assembly, 9.2 μL of crRNA and 9.2 μL of tracrRNA were mixed in 211.6 μL of Nuclease-Free Duplex Buffer (IDT), incubated for 5 min at 95° C. and slowly cooled at rt (see I. Lostalé-Seijo, et al. Peptide/Cas9 nanostructures for ribonucleoprotein cell membrane transport and gene edition, Chem. Sci., 2017). Cas9 protein was dissolved in DMEM at a final concentration of 4 μM and equal volumes of the RNA complex and Cas9 were mixed and incubated for 5 min at rt. 75 μL of the corresponding amphiphile concentrations were added to 5 μL of RNP at 2 μM. The mixture was shaken for 30 min at room temperature before the addition to the cells. The cell medium was aspirated, and cells were washed twice with PBS. Cells were covered with 30 μL of DMEM and 20 μL of the RNP/amphiphile complexes were added to the cells (final peptide concentrations=2.5, 5 and 10 μM; final Cas9-RNP concentration=50 nM) and incubated for 4 h. After the incubation, the medium was replaced by 100 μL of fresh DMEM supplemented with 10% FBS. The total EGFP fluorescence was quantified after 72 h in a plate reader (FIG. 2, Table 1 (right) and Table 6). All experiments were done in triplicate.
as §2
Tables 26-31 show the mean (triplicates) percentage of gene editing, accounted by GFP fluorescence intensity decrease (% of reduction), measured after the transfection of Cas9-RNP by different amphiphiles at different concentrations in a variety of cell lines. Background values, accounted by untreated control cells, were subtracted for processing.

HCT116 cells = test: RLuc pDNA delivery, robotic library screening, HCT116
Hela cells = test: EGFP mRNA delivery, robotic library screening, HeLa
Experimental: as §1, §2, §3

Row | Substance | mean fluorescence intensity (EGFP mRNA) (A549 cells; Myristoleyl, 5 μM) | mean fluorescence intensity (EGFP mRNA) (A549 cells; Petroselinyl, 2.5 μM) | mean fluorescence intensity (EGFP mRNA) (A549 cells; Petroselinyl, 5 μM) | mean fluorescence intensity (EGFP mRNA) (A549 cells; Petroselinyl, 10 μM) | percentage of gene editing, GFP fluorescence intensity decrease (% of reduction) ([1]; Dodecanal, 10 μM) [%] | percentage of gene editing, GFP fluorescence intensity decrease (% of reduction) ([1]; Dodecanal, 15 μM) [%] | percentage of gene editing, GFP fluorescence intensity decrease (% of reduction) ([1]; Myristoleyl, 5 μM) [%] | percentage of gene editing, GFP fluorescence intensity decrease (% of reduction) ([1]; Oleyl, 10 μM) [%] | percentage of gene editing, GFP fluorescence intensity decrease (% of reduction) ([1]; Oleyl, 15 μM) [%] | percentage of gene editing, GFP fluorescence intensity decrease (% of reduction) ([1]; Palmitoleyl, 15 μM) [%] | percentage of gene editing, GFP fluorescence intensity decrease (% of reduction) ([1]; Petroselinyl, 15 μM) [%] | mean luminescent intensity (RLuc pDNA) (HCT116 cells; Dodecanal, 10 μM) [RLU] | mean luminescent intensity (RLuc pDNA) (HCT116 cells; Myristoleyl, 5 μM) [RLU] | mean luminescent intensity (RLuc pDNA) (HCT116 cells; Myristoleyl, 10 μM) [RLU] | mean luminescent intensity (RLuc pDNA) (HCT116 cells; Oleyl, 10 μM) [RLU] | mean luminescent intensity (RLuc pDNA) (HCT116 cells; Oleyl, 15 μM) [RLU] | mean luminescent intensity (RLuc pDNA) (HCT116 cells; Palmitoleyl, 15 μM) [RLU] | mean luminescent intensity (RLuc pDNA) (HCT116 cells; Petroselinyl, 5 μM) [RLU] | mean luminescent intensity (RLuc pDNA) (HCT116 cells; Petroselinyl, 10 μM) [RLU] | mean luminescent intensity (RLuc pDNA) (HCT116 cells; Petroselinyl, 15 μM) [RLU] | further results
1 | Ac-RRLK*RLLRRLK*RLK*RRL-NH2 (Ac-RRLK(NHNH2)RLLRRLK(NHNH2)RLK(NHNH2)RRL-NH2; not fully specified; printed as Ac-RRLK*RLLRRLK*RLK*RRL-NH2; also: K*4,K*11,K*14: native or modified lysine (ε-amide to a linker)) [Peptide 17.3] | 309 | 791 | 440 | 274 | 75 | 34 | 17 | 72 | 34 | 72 | 66 | 1102 | 7561 | −331 | 1799 | 1957 | 892 | 46486 | 11022 | 1651 | mean fluorescence intensity (EGFP mRNA) (A549 cells; Myristoleyl, 2.5 μM): 563; percentage of gene editing, GFP fluorescence intensity decrease (% of reduction) ([1]; Palmitoleyl, 5 μM): 17%; percentage of gene editing, GFP fluorescence intensity decrease (% of reduction) ([1]; Palmitoleyl, 10 μM): 60%; percentage of gene editing, GFP fluorescence intensity decrease (% of reduction) ([1]; Petroselinyl, 5 μM): 23%; mean luminescent intensity (RLuc pDNA) (HCT116 cells; Palmitoleyl, 5 μM): 14037 RLU; mean luminescent intensity (RLuc pDNA) (HCT116 cells; Palmitoleyl, 10 μM): 5954 RLU; mean fluorescence intensity (EGFP mRNA) (Hela cells; HeLa, Dodecanal, 5 μM): 43; mean fluorescence intensity (EGFP mRNA) (Hela cells; HeLa, Myristoleyl, 2.5 μM): 64; mean fluorescence intensity (EGFP mRNA) (Hela cells; HeLa, Petroselinyl, 10 μM): −16; mean fluorescence intensity (EGFP mRNA) (Hela cells; Hela, Dodecanal, 10 μM): 52; mean fluorescence intensity (EGFP mRNA) (Hela cells; Hela, Myristoleyl, 5 μM): 6; mean fluorescence intensity (EGFP mRNA) (Hela cells; Hela, Myristoleyl, 10 μM): 76; mean fluorescence intensity (EGFP mRNA) (Hela cells; Hela, Petroselinyl, 5 μM): 25
2 | Ac-RK*LRRK*LRK*-NH2 (Ac-RK(NHNH2)LRRK(NHNH2)LRK(NHNH2)-NH2; not fully specified; printed as Ac-RK*LRRK*LRK*-NH2; also: K*2,K*6,K*9: native or modified lysine (ε-amide to a linker)) [Peptide 9.3] | 219 | 94 | 789 | 349 | 0 | 25 | 13 |  | 18 | 39 | 47 | 1466 | 16615 | 58572 |  | 1940 | 141026 | 30301 | 113431 | 76316 | mean fluorescence intensity (EGFP mRNA) (A549 cells; Myristoleyl, 10 μM): −17; mean fluorescence intensity (EGFP mRNA) (A549 cells; Oleyl, 2.5 μM): 89; mean fluorescence intensity (EGFP mRNA) (A549 cells; Oleyl, 5 μM): 399; mean fluorescence intensity (EGFP mRNA) (A549 cells; Oleyl, 10 μM): 139; percentage of gene editing, GFP fluorescence intensity decrease (% of reduction) ([1]; Myristoleyl, 10 μM): 17%; percentage of gene editing, GFP fluorescence intensity decrease (% of reduction) ([1]; Myristoleyl, 15 μM): 50%; percentage of gene editing, GFP fluorescence intensity decrease (% of reduction) ([1]; Petroselinyl, 10 μM): 13%; mean luminescent intensity (RLuc pDNA) (HCT116 cells; Dodecanal, 15 μM): 1854 RLU; mean luminescent intensity (RLuc pDNA) (HCT116 cells; Myristoleyl, 15 μM): 19746 RLU; mean fluorescence intensity (EGFP mRNA) (Hela cells; HeLa, Dodecanal, 2.5 μM): 2347; mean fluorescence intensity (EGFP mRNA) (Hela cells; HeLa, Dodecanal, 5 μM): 3482; mean fluorescence intensity (EGFP mRNA) (Hela cells; HeLa, Myristoleyl, 2.5 μM): 11661; mean fluorescence intensity (EGFP mRNA) (Hela cells; HeLa, Oleyl, 5 μM): 441; mean fluorescence intensity (EGFP mRNA) (Hela cells; HeLa, Petroselinyl, 10 μM): 1322; mean fluorescence intensity (EGFP mRNA) (Hela cells; Hela, Myristoleyl, 5 μM): 2874; mean fluorescence intensity (EGFP mRNA) (Hela cells; Hela, Oleyl, 10 μM): 335; mean fluorescence intensity (EGFP mRNA) (Hela cells; Hela, Palmitoleyl, 5 μM): 3313; mean fluorescence intensity (EGFP mRNA) (Hela cells; Hela, Petroselinyl, 5 μM): 9616
3 | Ac-RRLK*RLLRRLK*RL-NH2 (Ac-RRLK(NHNH2)RLLRRLK(NHNH2)RL-NH2; not fully specified; printed as Ac-RRLK*RLLRRLK*RL-NH2; also: K*4,K*11: native or modified lysine (ε-amide to a linker)) [Peptide 13.2] |  |  |  |  |  |  |  | 12 | 4 |  |  |  |  |  | 2338 | 1593 |  |  |  |  | mean fluorescence intensity (EGFP mRNA) (A549 cells; Oleyl, 2.5 μM): 136; mean fluorescence intensity (EGFP mRNA) (A549 cells; Oleyl, 5 μM): 160; mean fluorescence intensity (EGFP mRNA) (A549 cells; Oleyl, 10 μM): 22; percentage of gene editing, GFP fluorescence intensity decrease (% of reduction) ([1]; Oleyl, 5 μM): 10%; mean luminescent intensity (RLuc pDNA) (HCT116 cells; Oleyl, 5 μM): 15723 RLU; mean fluorescence intensity (EGFP mRNA) (Hela cells; HeLa, Oleyl, 5 μM): 273
